Earlier results, collected in patent publication US9333171B2, “Controlled-release CNS modulating compositions and methods for the treatment of otic disorders” (Otonomy, Inc., priority 2008, dated 2016).

Columns and labels:
V2-R = conditions: infusion into the scala tympani
guinea pigs = conditions: chronic administration in guinea pigs

Row | Structure (SMILES) | Effect on Meniere's disease symptoms (V2-R) | Induction of endolymphatic hydrops (guinea pigs)
1 | Cc1ccccc1C(=O)Nc1ccc(C(=O)N2CCCC(N(C)C)c3ccccc32)cc1 (centres unmarked) [OPC-31260] | marked reduction of Meniere's disease symptoms | –
2 | NC(=O)CC[C@@H]1NC(=O)[C@H](Cc2ccccc2)NC(=O)[C@H](Cc2ccc(O)cc2)NC(=O)[C@@H](N)CSSC[C@@H](C(=O)N2CCC[C@H]2C(=O)N[C@@H](CCCN=C(N)N)C(=O)NCC(N)=O)NC(=O)[C@H](CC(N)=O)NC1=O [VP, vasopressin] | – | induce endolymphatic hydrops
